Source: patent US11690850B2, “Inhibitors of receptor interacting protein kinase I for the treatment of disease” (Board of Regents, The University of Texas System, priority 2019, dated 2023)

Biological target: RIPK1 (Homo sapiens (Human), UniProt Q13546)
Assay: ADP-Glo Kinase Assay
Format: biochemical
Conditions: 5 nM RIPK1 protein, 50 μM ATP, 6 hr reaction, average value across multiple runs
Procedure: In order to measure RIPK1 activity the ADP-Glo kinase assay (Promega, Catalog #V7002) was used to measure the conversion of ATP to ADP. This enzymatic assay was performed in a 384-well white, Optiplate (Perkin Elmer, Catalog #6007299) with assay buffer consisting of 50 mM HEPES pH 7.5 (Gibco, Catalog #15630-080), 50 mM NaCl (Teknova, Catalog #S0252), 30 mM MgCl2 (Ambion, Catalog #AM9530G), 1 mM DTT (Santa Cruz Biotechnology, Catalog #sc-29089), 0.05% BSA (Sigma, Catalog #A3059-50G) and 0.02% CHAPS (Sigma, Catalog #C5070-5G). Stock solutions of the test compounds were prepared in 100% DMSO (Sigma, Catalog #D2650) and serially diluted 1:3 using 100% DMSO. Compounds were additionally diluted 1:40 in assay buffer, and 2 μL/well were transferred to the assay plate. 4 μL/well (final concentration of 5 nM) of RIPK1 protein (SignalChem, Catalog #R07-11G-05) diluted in assay buffer and added to the assay plate followed by a 10 minute preincutation at room temperature. 4 μL/well of ATP (Promega, Catalog #V7002) (final concentration of 50 μM) diluted in assay buffer were then added to the assay plate followed by a 6 hr reaction time. Final concentrations of RIPK1 and ATP refer to a 10 μL volume. Luminescence was measured using a BioTek Synergy™ NEO plate reader. IC50 values were calculated using a four-parameter logistic curve fit using Genedata Screener software. Results are shown below in Table 4, where the average value across multiple runs is given.

RIPK1, sequence (Q13546 1-327): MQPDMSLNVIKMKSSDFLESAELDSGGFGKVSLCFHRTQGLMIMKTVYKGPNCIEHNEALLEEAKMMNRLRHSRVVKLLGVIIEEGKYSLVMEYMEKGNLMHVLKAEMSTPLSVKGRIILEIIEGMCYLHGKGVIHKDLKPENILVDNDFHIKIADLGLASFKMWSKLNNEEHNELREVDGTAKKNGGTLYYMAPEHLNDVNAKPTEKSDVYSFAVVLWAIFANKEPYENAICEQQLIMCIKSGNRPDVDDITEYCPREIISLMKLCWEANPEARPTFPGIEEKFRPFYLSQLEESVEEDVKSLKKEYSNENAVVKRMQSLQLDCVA

| Structure (SMILES) | IC50 [µM] |
| --- | --- |
| Cc1cc(=O)c(C(=O)Nc2cccc(Cl)c2F)nn1Cc1ccccc1 [Example 2, 1-Benzyl-N-(3-chloro-2-fluorophenyl)-6-methyl-4-oxo-1,4-dihydropyridazine-3-carboxamide] | 0.823 |
| Cc1cc(=O)c(C(=O)NCc2cc(F)cc(F)c2)nn1-c1ccccc1 [Example 3, N-(3,5-difluorobenzyl)-6-methyl-4-oxo-1-phenyl-1,4-dihydropyridazine-3-carboxamide] | 10.2 |
| Cc1cc(=O)c(C(=O)Nc2cccc(Cl)c2)nn1-c1ccccc1 [Example 4, N-(3-chlorophenyl)-6-methyl-4-oxo-1-phenyl-1,4-dihydropyridazine-3-carboxamide] | 0.08 |
| Cc1cc(=O)c(C(=O)Nc2cc(Cl)cc(C#N)c2)nn1-c1ccccc1 [Example 5, N-(3-chloro-5-cyanophenyl)-6-methyl-4-oxo-1-phenyl-1,4-dihydropyridazine-3-carboxamide] | 1.78 |
| Cc1cc(=O)c(C(=O)Nc2ccccc2)nn1-c1cccc(Cl)c1F [Example 7, 1-(3-chloro-2-fluorophenyl)-6-methyl-4-oxo-N-phenyl-1,4-dihydropyridazine-3-carboxamide] | 1.6 |
| Cc1cc(=O)c(C(=O)Nc2cncc(Cl)c2)nn1-c1ccccc1 [Example 10, N-(5-chloropyridin-3-yl)-6-methyl-4-oxo-1-phenyl-1,4-dihydropyridazine-3-carboxamide] | 0.39 |
| Cc1cc(=O)c(C(=O)Nc2ccn3nccc3c2)nn1-c1ccccc1 [Example 11, 6-methyl-4-oxo-1-phenyl-N-(pyrazolo[1,5-a]pyridin-5-yl)-1,4-dihydropyridazine-3-carboxamide] | 15.4 |
| Cc1cc(=O)c(C(=O)Nc2cc(Cl)c3ncsc3c2)nn1-c1ccccc1 [Example 12, N-(4-chlorobenzo[d]thiazol-6-yl)-6-methyl-4-oxo-1-phenyl-1,4-dihydropyridazine-3-carboxamide] | 1.18 |
| Cc1cc(=O)c(C(=O)Nc2ccc3nn[nH]c3c2)nn1-c1ccccc1 [Example 13, N-(1H-benzo[d][1,2,3]triazol-6-yl)-6-methyl-4-oxo-1-phenyl-1,4-dihydropyridazine-3-carboxamide] | 7.92 |
| Cc1nn(C)c(C)c1NC(=O)c1nn(-c2ccccc2)c(C)cc1=O [Example 14, 6-methyl-4-oxo-1-phenyl-N-(1,3,5-trimethyl-1H-pyrazol-4-yl)-1,4-dihydropyridazine-3-carboxamide] | 4.61 |
| Cc1cc(NC(=O)c2nn(-c3ccccc3)c(C)cc2=O)ncn1 [Example 15, 6-methyl-N-(6-methylpyrimidin-4-yl)-4-oxo-1-phenyl-1,4-dihydropyridazine-3-carboxamide] | 13.6 |
| Cc1noc(C)c1NC(=O)c1nn(-c2ccccc2)c(C)cc1=O [Example 16, N-(3,5-dimethylisoxazol-4-yl)-6-methyl-4-oxo-1-phenyl-1,4-dihydropyridazine-3-carboxamide] | 4.4 |
| Cc1cc(=O)c(C(=O)Nc2cc(Cl)c3cn[nH]c3c2)nn1-c1ccccc1 [Example 18, N-(4-chloro-1H-indazol-6-yl)-6-methyl-4-oxo-1-phenyl-1,4-dihydropyridazine-3-carboxamide] | 4.71 |
| Cc1n[nH]c(C)c1NC(=O)c1nn(-c2ccccc2)c(C)cc1=O [Example 19, N-(3,5-dimethyl-1H-pyrazol-4-yl)-6-methyl-4-oxo-1-phenyl-1,4-dihydropyridazine-3-carboxamide] | 12.6 |
| Cc1nccc(NC(=O)c2nn(-c3ccccc3)c(C)cc2=O)n1 [Example 20, 6-methyl-N-(2-methylpyrimidin-4-yl)-4-oxo-1-phenyl-1,4-dihydropyridazine-3-carboxamide] | 4.46 |
| Cc1cc(=O)c(C(=O)Nc2ccc(C#N)s2)nn1-c1ccccc1 [Example 21, N-(5-cyanothiophen-2-yl)-6-methyl-4-oxo-1-phenyl-1,4-dihydropyridazine-3-carboxamide] | 0.636 |
| Cc1cccc(C)c1NC(=O)c1nn(-c2ccccc2)c(C)cc1=O [Example 22, N-(2,6-dimethylphenyl)-6-methyl-4-oxo-1-phenyl-1,4-dihydropyridazine-3-carboxamide] | 1.5 |
| Cc1cc(=O)c(C(=O)Nc2c3c(nc4ccccc24)CCCC3)nn1-c1ccccc1 [Example 23, 6-methyl-4-oxo-1-phenyl-N-(1,2,3,4-tetrahydroacridin-9-yl)-1,4-dihydropyridazine-3-carboxamide] | 1.14 |

| Structure (SMILES) | IC50 [µM] |
| --- | --- |
| Cc1ncnc(C)c1NC(=O)c1nn(-c2ccccc2)c(C)cc1=O [Example 25, N-(4,6-dimethylpyrimidin-5-yl)-6-methyl-4-oxo-1-phenyl-1,4-dihydropyridazine-3-carboxamide] | 3.87 |
| Cc1cc(=O)c(C(=O)Nc2c(F)cccc2C(C)C)nn1-c1ccccc1 [Example 27, N-(2-fluoro-6-isopropylphenyl)-6-methyl-4-oxo-1-phenyl-1,4-dihydropyridazine-3-carboxamide] | 1.46 |
| Cc1cccc(C(C)(C)C)c1NC(=O)c1nn(-c2ccccc2)c(C)cc1=O [Example 28, N-(2-(tert-butyl)-6-methylphenyl)-6-methyl-4-oxo-1-phenyl-1,4-dihydropyridazine-3-carboxamide] | 2.68 |
| Cc1cccc(C(F)(F)F)c1NC(=O)c1nn(-c2ccccc2)c(C)cc1=O [Example 29, 6-methyl-N-(2-methyl-6-(trifluoromethyl)phenyl)-4-oxo-1-phenyl-1,4-dihydropyridazine-3-carboxamide] | 1.15 |
| Cc1cc(=O)c(C(=O)Nc2ccccc2C2CC2)nn1-c1ccccc1 [Example 30, N-(2-cyclopropylphenyl)-6-methyl-4-oxo-1-phenyl-1,4-dihydropyridazine-3-carboxamide] | 15.5 |
| Cc1cnc2ccccc2c1NC(=O)c1nn(-c2ccccc2)c(C)cc1=O [Example 31, 6-methyl-N-(3-methylquinolin-4-yl)-4-oxo-1-phenyl-1,4-dihydropyridazine-3-carboxamide] | 0.519 |
| Cc1cc(=O)c(C(=O)Nc2c(C(C)C)ncnc2C(C)C)nn1-c1ccccc1 [Example 34, N-(4,6-diisopropylpyrimidin-5-yl)-6-methyl-4-oxo-1-phenyl-1,4-dihydropyridazine-3-carboxamide] | 3.91 |
| COCc1cc(=O)c(C(=O)Nc2cccc(Cl)c2F)nn1-c1ccccc1 [Example 35, N-(3-chloro-2-fluorophenyl)-6-(methoxymethyl)-4-oxo-1-phenyl-1,4-dihydropyridazine-3-carboxamide] | 1.78 |
| CN1C(=O)C(NC(=O)c2nn(-c3ccccc3)c(CCl)c(Cl)c2=O)CCc2cc(Cl)ccc21 (stereo not drawn) [Example 46, 5-chloro-N-(7-chloro-1-methyl-2-oxo-2,3,4,5-tetrahydro-1H-benzo[b]azepin-3-yl)-6-(chloromethyl)-4-oxo-1-phenyl-1,4-dihydropyridazine-3-carboxamide] | 1.44 |
| Cc1ccc(-n2nc(C(=O)NC3CCc4ccccc4NC3=O)c(=O)cc2C)cc1F (stereo not drawn) [Example 52, 1-(3-fluoro-4-methylphenyl)-6-methyl-4-oxo-N-(2-oxo-2,3,4,5-tetrahydro-1H-benzo[b]azepin-3-yl)-1,4-dihydro-pyridazine-3-carboxamide] | 0.037 |
| Cc1cc(=O)c(C(=O)Nc2nc(C(F)(F)F)c(Br)s2)nn1-c1ccccc1 [Example 84, N-(5-bromo-4-(trifluoromethyl)thiazol-2-yl)-6-methyl-4-oxo-1-phenyl-1,4-dihydropyridazine-3-carboxamide] | 33.3 |
| Cc1cc(=O)c(C(=O)NC(C)(C)C)nn1-c1ccccc1 [Example 85, N-(tert-butyl)-6-methyl-4-oxo-1-phenyl-1,4-dihydropyridazine-3-carboxamide] | 38.8 |
| Cc1nocc1NC(=O)c1nn(-c2ccccc2)c(C)cc1=O [Example 86, 6-methyl-N-(3-methylisoxazol-4-yl)-4-oxo-1-phenyl-1,4-dihydropyridazine-3-carboxamide] | 17.6 |
| Cc1cc(C)c2nc(NC(=O)c3nn(-c4ccccc4)c(C)cc3=O)sc2c1 [Example 87, N-(4,6-dimethylbenzo[d]thiazol-2-yl)-6-methyl-4-oxo-1-phenyl-1,4-dihydropyridazine-3-carboxamide] | 20.8 |
| COCc1cc(=O)c(C(=O)Nc2cccc(Cl)c2F)nn1C [Example 88, N-(3-chloro-2-fluorophenyl)-6-(methoxymethyl)-1-methyl-4-oxo-1,4-dihydropyridazine-3-carboxamide] | 33.3 |
| Cc1cc(=O)c(C(=O)Nc2c(C(C)C)nn(C)c2C(C)C)nn1-c1ccccc1 [Example 89, N-(3,5-diisopropyl-1-methyl-1H-pyrazol-4-yl)-6-methyl-4-oxo-1-phenyl-1,4-dihydropyridazine-3-carboxamide] | 18.6 |
| Cc1cc(=O)c(C(=O)Nc2c(C(C)C)n[nH]c2C(C)C)nn1-c1ccccc1 [Example 90, N-(3,5-diisopropyl-1H-pyrazol-4-yl)-6-methyl-4-oxo-1-phenyl-1,4-dihydropyridazine-3-carboxamide] | 41.9 |
| Cc1cc(=O)c(C(=O)NC2CC2)nn1-c1ccccc1 [Example 91, N-cyclopropyl-6-methyl-4-oxo-1-phenyl-1,4-dihydropyridazine-3-carboxamide] | 5.31 |
